Laboratory results reported in ChEMBL document CHEMBL4390669, “C-6α- vs C-7α-Substituted Steroidal Aromatase Inhibitors: Which Is Better? Synthesis, Biochemical Evaluation, Docking Studies, and Structure-Activity Relationships” (J Med Chem, 2019).
The source made the active and inactive calls. The calls are words filed in the database; no cut-off is given here.

How the values were obtained:
Aromatase [1] = target: T1, Aromatase (Homo sapiens, UniProt P11511); experiment: Inhibition of human placental microsome aromatase at 2 uM using [1beta3H]-androstenedione as substrate measured after 15 mins in presence of NADPH by liquid scintillation counting method relative to control; format: microsomes, Placenta; details: 0.25 h
T1 sequence (P11511 whole entry): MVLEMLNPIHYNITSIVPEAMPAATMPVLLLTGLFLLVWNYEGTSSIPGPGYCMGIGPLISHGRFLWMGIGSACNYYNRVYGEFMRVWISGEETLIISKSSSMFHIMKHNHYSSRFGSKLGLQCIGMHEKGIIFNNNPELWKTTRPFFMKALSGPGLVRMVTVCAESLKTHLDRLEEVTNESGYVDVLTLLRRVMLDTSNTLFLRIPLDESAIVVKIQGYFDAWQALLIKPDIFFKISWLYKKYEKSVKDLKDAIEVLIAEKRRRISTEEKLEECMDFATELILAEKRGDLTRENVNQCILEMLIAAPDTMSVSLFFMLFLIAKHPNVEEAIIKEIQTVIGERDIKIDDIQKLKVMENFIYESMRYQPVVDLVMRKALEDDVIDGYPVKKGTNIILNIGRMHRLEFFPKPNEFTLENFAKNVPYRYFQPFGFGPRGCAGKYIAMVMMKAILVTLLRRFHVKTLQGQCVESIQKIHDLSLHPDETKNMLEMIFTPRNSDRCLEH

Aromatase [2] = target: T1, Aromatase; experiment: Inhibition of human placental microsome aromatase using [1beta3H]-androstenedione as substrate measured after 15 mins in presence of NADPH by liquid scintillation counting method; format: microsomes, Placenta; details: for inhibition (INH): human, microsomes, 0.25 h
Aromatase [3] = target: T1, Aromatase; experiment: Ratio of Km to Ki for human placental microsome aromatase using varying levels of [1beta3H]-androstenedione as substrate measured after 5 mins in presence of NADPH by Dixon-plot analysis; parameters: species or system Placenta; details: microsomes
Aromatase [4] = target: T1, Aromatase; experiment: Inhibition of […] aromatase expressed in human MCF7 cells at 10 uM using [1beta3H]-androstenedione as substrate measured after 1 hr in presence of progesterone relative to control
Aromatase [5] = target: T1, Aromatase; experiment: Competitive irreversible inhibition of human placental microsome aromatase using varying levels of [1beta3H]-androstenedione as substrate measured after 5 mins in presence of NADPH by Lineweaver-burk plot analysis; parameters: species or system Placenta; details: microsomes
Aromatase [6] = target: T1, Aromatase; experiment: Competitive reversible inhibition of human placental microsome aromatase using varying levels of [1beta3H]-androstenedione as substrate measured after 5 mins in presence of NADPH by Dixon-plot analysis; format: microsomes, Placenta; details: read-out: Ki(app)
Aromatase [7] = target: T1, Aromatase; experiment: Competitive irreversible inhibition of human placental microsome aromatase using varying levels of [1beta3H]-androstenedione as substrate measured after 5 mins in presence of NADPH by Dixon-plot analysis; format: microsomes, Placenta; details: read-out: Ki(app)
Aromatase [8] = target: T1, Aromatase; experiment: Competitive reversible inhibition of human placental microsome aromatase using varying levels of [1beta3H]-androstenedione as substrate measured after 5 mins in presence of NADPH by Lineweaver-burk plot analysis; parameters: species or system Placenta; details: microsomes
Aromatase [9] = target: T1, Aromatase; experiment: Competitive reversible inhibition of human placental microsome aromatase assessed as substrate Vmax per ug protein using varying levels of [1beta3H]-androstenedione as substrate measured after 5 mins in presence of NADPH by Dixon-plot analysis; parameters: species or system Placenta; details: microsomes
MCF7 = experiment: Induction of crystal formation in human MCF7 cells transfected with human placental microsome aromatase at 10 uM measured after 1 hr; format: functional, cell-based

`C[C@@H]1C[C@@H]2[C@H]3O[C@H]3CC[C@]2(C)[C@H]2CC[C@]3(C)C(=O)CC[C@H]3[C@H]12` gave an inhibition at 2 µM (Aromatase [1]) of 13.7%.

For `C=CC[C@H]1C[C@@H]2[C@H](CC[C@]3(C)C(=O)CC[C@@H]23)[C@@]2(C)C=CC(=O)C=C12`, the IC50 (Aromatase [2]) was 55 nM, the “inhibition (INH)” value (Aromatase [2]) was “Dose-dependent effect” and the Ratio (Aromatase [3]) was 2.81. For the same molecule, the inhibition at 10 µM (Aromatase [4]) was 99.2%, the inhibition at 2 µM (Aromatase [1]) was 97.6% and the “inhibition (INH)” value (Aromatase [5]) was “Active”.

`C[C@]12CCC(=O)C=C1[C@@H](O)C[C@@H]1[C@@H]2CC[C@]2(C)C(=O)CC[C@@H]12` showed an IC50 (Aromatase [2]) of 880 nM, an inhibition at 10 µM (Aromatase [4]) of 88.4% and an inhibition at 2 µM (Aromatase [1]) of 90.7%.

`C[C@H]1C[C@@H]2[C@H](CC[C@]3(C)C(=O)CC[C@@H]23)[C@@]2(C)CCC(=O)C=C12` was tested, and the Ki (Aromatase [6]) was 25 nM, the IC50 (Aromatase [2]) was 60 nM and the “inhibition (INH)” value (Aromatase [2]) was “Dose-dependent effect”. The Ratio (Aromatase [3]) was 2.53, the Ki (Aromatase [7]) was 22.5 nM and the “inhibition (INH)” value (Aromatase [8]) was “Active”. The inhibition at 10 µM (Aromatase [4]) was 98.6%, the inhibition at 2 µM (Aromatase [1]) was 98.7% and the Vmax (Aromatase [9]) was 0.0191 nmol/min.

With `C[C@@H]1CC2=CCCC[C@]2(C)[C@H]2CC[C@]3(C)C(=O)CC[C@H]3[C@H]12` the IC50 (Aromatase [2]) was 405 nM, the inhibition at 10 µM (Aromatase [4]) was 89.5% and the inhibition at 2 µM (Aromatase [1]) was 97.4%.

`C=CC[C@@H]1CC2=C(O)C(=O)CC[C@]2(C)[C@H]2CC[C@]3(C)C(=O)CC[C@H]3[C@H]12` was tested, and the IC50 (Aromatase [2]) was 110 nM, the “inhibition (INH)” value (Aromatase [2]) was “Dose-dependent effect” and the Activity (MCF7) was “Active”. For the same molecule, the inhibition at 2 µM (Aromatase [1]) was 91.8%.

In the case of `C[C@@H]1CC2=CC(=O)CC[C@]2(C)[C@H]2CC[C@]3(C)C(=O)CC[C@H]3[C@H]12`, the IC50 (Aromatase [2]) is reported as 270 nM, the inhibition at 10 µM (Aromatase [4]) is reported as 90.8% and the inhibition at 2 µM (Aromatase [1]) is reported as 94.3%.

With `C[C@H]1C[C@@H]2[C@H](CC[C@]3(C)C(=O)CC[C@@H]23)[C@@]2(C)CC[C@H]3O[C@H]3[C@H]12` the IC50 (Aromatase [2]) was 175 nM, the inhibition at 10 µM (Aromatase [4]) was 84.2% and the inhibition at 2 µM (Aromatase [1]) was 96.7%.

With `C[C@]12CCC(=O)C(O)=C1CC[C@@H]1[C@@H]2CC[C@]2(C)C(=O)CC[C@@H]12` [FORMESTANE] the inhibition at 10 µM (Aromatase [4]) was 97.1% and the inhibition at 2 µM (Aromatase [1]) was 99.2%.

`C=CC[C@@H]1CC2=CC(=O)CC[C@]2(C)[C@H]2CC[C@]3(C)C(=O)CC[C@H]3[C@H]12` showed an inhibition at 10 µM (Aromatase [4]) of 92.6%.

In the case of `C=CC[C@@H]1CC2=CC(=O)C=C[C@]2(C)[C@H]2CC[C@]3(C)C(=O)CC[C@H]3[C@H]12`, the inhibition at 10 µM (Aromatase [4]) is reported as 96.3%.

Molecule `C[C@H]1C[C@@H]2[C@H](CC[C@]3(C)C(=O)CC[C@@H]23)[C@@]2(C)CCC=C[C@H]12` has an IC50 (Aromatase [2]) of 560 nM, an inhibition at 10 µM (Aromatase [4]) of 88.7% and an inhibition at 2 µM (Aromatase [1]) of 93.5%.

`C[C@H]1C[C@H]2[C@@H]3CCC(=O)[C@@]3(C)CC[C@@H]2[C@@]2(C)CCC[C@H]3O[C@]132` showed an inhibition at 2 µM (Aromatase [1]) of 58.7%.

`C[C@]12CCC(=O)C=C1[C@H](O)C[C@@H]1[C@@H]2CC[C@]2(C)C(=O)CC[C@@H]12` gave an IC50 (Aromatase [2]) of 840 nM, an inhibition at 10 µM (Aromatase [4]) of 88.2% and an inhibition at 2 µM (Aromatase [1]) of 88.6%.

With `C[C@H]1C[C@H]2[C@@H]3CCC(=O)[C@@]3(C)CC[C@@H]2[C@@]2(C)CCC[C@@H]3O[C@]312` the inhibition at 2 µM (Aromatase [1]) was 76.2%.

For `C=CC[C@H]1C[C@@H]2[C@H](CC[C@]3(C)C(=O)CC[C@@H]23)[C@@]2(C)CCC(=O)C=C12`, the IC50 (Aromatase [2]) was 105 nM, the “inhibition (INH)” value (Aromatase [2]) was “Dose-dependent effect” and the inhibition at 10 µM (Aromatase [4]) was 96.5%. It also gave an inhibition at 2 µM (Aromatase [1]) of 97.2%.

Work on `C=CC[C@@H]1CC2=CCCC[C@]2(C)[C@H]2CC[C@]3(C)C(=O)CC[C@H]3[C@H]12` yielded an inhibition at 10 µM (Aromatase [4]) of 74.7%.

In the case of `C=CC[C@H]1C[C@@H]2[C@H](CC[C@]3(C)C(=O)CC[C@@H]23)[C@@]2(C)CCC(=O)C(O)=C12`, the IC50 (Aromatase [2]) is reported as 520 nM, the inhibition at 10 µM (Aromatase [4]) is reported as 80.7% and the inhibition at 2 µM (Aromatase [1]) is reported as 90.1%.

For `C[C@@H]1C[C@@]23O[C@@H]2CCC[C@]3(C)[C@H]2CC[C@]3(C)C(=O)CC[C@H]3[C@H]12`, the inhibition at 2 µM (Aromatase [1]) was 64.9%.

`C[C@]12CCC(=O)C=C1C[C@@H](O)[C@@H]1[C@@H]2CC[C@]2(C)C(=O)CC[C@@H]12` was tested, and the inhibition at 2 µM (Aromatase [1]) was 49.8%.

For `C[C@H]1C[C@@H]2[C@H](CC[C@]3(C)C(=O)CC[C@@H]23)[C@@]2(C)CCCC=C12`, the IC50 (Aromatase [2]) was 170 nM, the Activity (MCF7) was “Active” and the inhibition at 2 µM (Aromatase [1]) was 96.7%.

With `C=CC[C@H]1C[C@@H]2[C@H](CC[C@]3(C)C(=O)CC[C@@H]23)[C@@]2(C)CCCC=C12` the IC50 (Aromatase [2]) was 210 nM, the inhibition at 10 µM (Aromatase [4]) was 84.1% and the inhibition at 2 µM (Aromatase [1]) was 92.4%.
